Data: US6683103B2, “Sulfonamides for treatment of endothelin-mediated disorders” (Texas Biotechnology Corporation, priority 1997, dated 2004)

What was measured:
human ETB receptor = biological target: T1, human ETB receptor (Homo sapiens, UniProt P24530); test: Binding Test #2: inhibition of 125I-ET-1 binding to ETB receptors (transfected COS7 cell membranes); settings: Table 1; † incubation at 24° C.; read-out: ETB
T1 construct: expressed in transfected cells; host or cells: COS7 cells
T1 sequence (P24530 27-442): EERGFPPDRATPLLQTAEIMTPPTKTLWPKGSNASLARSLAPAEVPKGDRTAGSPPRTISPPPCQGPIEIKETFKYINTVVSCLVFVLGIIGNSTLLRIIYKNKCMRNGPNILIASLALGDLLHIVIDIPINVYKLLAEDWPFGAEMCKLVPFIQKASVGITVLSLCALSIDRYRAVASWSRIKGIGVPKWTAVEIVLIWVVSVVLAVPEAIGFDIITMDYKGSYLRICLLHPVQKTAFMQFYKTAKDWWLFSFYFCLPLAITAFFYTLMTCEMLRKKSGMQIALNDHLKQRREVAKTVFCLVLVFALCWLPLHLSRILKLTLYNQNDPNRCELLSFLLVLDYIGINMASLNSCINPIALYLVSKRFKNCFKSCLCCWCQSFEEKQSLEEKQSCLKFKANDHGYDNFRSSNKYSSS
In short: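 Competition with 125I-ET-1 for binding to membranes from COS7 cells transfected with human ETB receptor, used at 1 μg/50 μl binding buffer. Membranes prepared in HEPES pH 7.4 with aprotinin, including a DNase/MnCl2 step at 37 °C for 30 min.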

human ETA receptors = biological target: T2, human ETA receptors (Homo sapiens, UniProt P25101); test: Binding Test #1: inhibition of 125I-ET-1 binding to ETA receptors (TE 671 cell membranes); settings: Table 1; † incubation at 24° C.; read-out: ETA
T2 construct: endogenous in cells; host or cells: TE 671 cells (ATCC HTB 139)
T2 sequence (P25101 21-427): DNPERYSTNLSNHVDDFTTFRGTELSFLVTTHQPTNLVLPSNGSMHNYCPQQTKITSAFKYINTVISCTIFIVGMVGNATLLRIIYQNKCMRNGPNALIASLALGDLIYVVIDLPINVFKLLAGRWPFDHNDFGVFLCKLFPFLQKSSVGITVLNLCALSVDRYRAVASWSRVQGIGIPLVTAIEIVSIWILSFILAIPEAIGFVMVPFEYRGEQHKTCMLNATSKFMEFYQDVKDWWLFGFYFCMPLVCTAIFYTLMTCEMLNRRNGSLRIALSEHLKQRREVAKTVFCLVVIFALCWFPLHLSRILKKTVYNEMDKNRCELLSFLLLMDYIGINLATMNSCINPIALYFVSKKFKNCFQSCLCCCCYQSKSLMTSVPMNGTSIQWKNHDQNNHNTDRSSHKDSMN
In short: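 Membranes from TE 671 cells (up to 8 μg protein) incubated with ¹²⁵I-ET-1 and compound (1 nM–100 μM final) in 30 mM HEPES pH 7.4, 150 mM NaCl, 5 mM MgCl2, 0.5% bacitracin, 16–18 h at 4 °C or alternatively at 24 °C. Nonspecific binding with 80 nM ET-1; bound pellet gamma-counted, % inhibition calculated, usually triplicate.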

| SMILES | IC50 (human ETB receptor) [µM] | IC50 (human ETA receptors) [nM] |
| --- | --- | --- |
| Cc1cc2c(cc1CC(=O)c1sccc1S(=O)(=O)Nc1onc(C)c1Cl)OCO2 [N-(4-chloro-3-methyl-5-isoxazolyl)-2-[2-methyl-4,5-(methylenedioxy)phenylacetyl]thiophene-3-sulfonamide] | 9 | 3.2 |
| Cc1noc(NS(=O)(=O)c2ccsc2C(=O)Cc2ccc3c(c2)OCO3)c1Cl [N-(4-chloro-3-methyl-5-isoxazolyl)-2-[(3,4-(methylenedioxy)phenylacetyl]thiophene-3-sulfonamide] | 6.5 | 21 |
